“Also recorded” adds a separate entry of the source.
Legend:
[1] = normal rats; ICG 10 μg/kg, sodium fluorescein 2 mg/kg; cited from earlier work
[2] = normal value; cited from earlier work
Mrp2, Mrp3, and Mrp4 = details: daily gavage for 4 days consecutively; normal mouse liver (without IRI); cited from earlier work
[3] = Sodium fluorescein clearance kinetics in blood and bile in the in vivo rat hepatic IRI model; parameters: species or system Sprague-Dawley rats
From the text: Male 7- to 8-wk-old Sprague-Dawley rats (median body weight of 243 g, interquartile range of 228-260 g, Charles River Laboratories) were housed in an animal facility accredited by the Association for Assessment and Accreditation of Laboratory Animal Care. The rats were fed Purina Lab Diet 5001 and reverse osmosis water ad libitum. All animals received humane care in accordance with the National Institutes of Health Guide for the Care and Use of Laboratory Animals. Only male rats were used in these experiments because multidrug resistance-associated protein 2 (MRP2), which is responsible for fluorescein excretion from the hepatocyte, is impaired by estradiol glucuronide. All experiments were approved by the Institutional Animal Care and Use Committee at the Medical College of Wisconsin (animal use Application No. 00004857).
We evaluated the effect of hepatic IRI on sodium fluorescein clearance by applying different warm ischemia times (WITs; 0 min, 30 min, or 60 min) and reperfusion times (1 h or 4 h). Thus, there were five experimental groups (n=5 each) based on ischemia and reperfusion times: no ischemia (control), brief ischemia (30 min) followed by 1 h of reperfusion, prolonged ischemia (60 min) followed by 1 h of reperfusion, brief ischemia (30 min) followed by 4 h of reperfusion, and prolonged ischemia (60 min) followed by 4 h of reperfusion (FIG. 32A).
Surgery was performed under isoflurane inhalation anesthesia (1%-3%; oxygen flow 1 L/min). Animals were placed on a warming pad set to obtain a temperature of around 39° C. (Far Infrared Warming Pad, Kent Scientific, Torrington, CT). A transverse abdominal incision was made, and the pedicles to the median and lateral lobes of the liver (˜70% of the volume of the liver) were temporarily occluded using a small vascular clamp (FE011K, Aesculap, Melsungen, Germany). This approach has been utilized for testing the effect of hepatic IRI on biliary excretion of fluorescein. During the designated time period for hepatic IRI, the abdominal wall was temporarily closed to prevent dehydration and heat loss.
For injection and sampling, blood vessels and the bile duct were cannulated as follows: a midline incision was made on the neck, and 8- to 10-cm polyethylene tubes were cannulated to the right jugular vein (0.58 mm inner diameter (ID)×0.97 mm outer diameter (OD); PE50, Braintree Scientific, Braintree, MA) and right carotid artery (0.28 mm ID×0.61 mm OD; PE10, Braintree Scientific, Braintree, MA). The polyethylene tubes in the vessels were attached to a 30-gauge blunt needle (SAI Infusion Technologies, Lake Villa, IL) and filled with 20 U/mL heparin in 0.9% saline. Another polyethylene tube (0.28 mm ID×0.61 mm OD; PE10, Braintree Scientific, Braintree, MA) was cannulated into the bile duct for bile sampling (FIG. 33B). The cannulation procedure was performed under a surgical microscope (Amscope, Irvine, CA).
Blood and bile were collected at eight time points over 60 min (0, 2, 5, 10, 20, 30, 45, and 60 min). At each time point, 180 μL of blood was collected by a heparin-coated syringe from the polyethylene tubing in the left carotid artery and mixed with 20 μL of heparin solution (10,000 U/mL). Of this 200-μL blood sample, 20 μL was used for whole blood analysis. The remaining 180 μL was centrifuged (3,000 rpm for 10 min), and 20 μL of supernatant was collected for plasma sample analysis. Likewise, 30 μL of bile was collected from the polyethylene tubing in the bile duct at each time point.
Once the baseline (0 min) samples were collected, sodium fluorescein (Sigma-Aldrich, St. […]
The blood, plasma, and bile samples (20 μL each) were placed in a 384-well plate (Greiner Bio-one, Monroe, NC) and covered with plastic film to minimize evaporation. The fluorescence intensity was measured in the samples using a microplate reader (CLARIOstar, BMG Labtech, Ortenberg, Germany), with the excitation set at 478 nm and emission light collected within the 505-552-nm spectral range. […]

[4] = Fluorescein clearance (bile-to-perfusate fluorescence) in ex vivo rat liver machine perfusion; details: WIT varied, CIT constant at 3 hours
From the text: This Example presents data obtained using ex vivo rat liver tissue in a perfusion machine system and provides further evidence supporting the usefulness of such measurements as a way to assess transplant tissue health and quality. With liver transplant there are two ischemia times: warm ischemia time (WIT) which is the time from tissue removal from the donor until cold fluid perfusion into the liver tissue; after cold perfusion, the remaining ischemia is termed cold ischemia time (CIT), which is slower. Most liver tissue can tolerate up to 30 min. of WIT whereas CIT can be tolerated for up to 12 hours. A certain amount of WIT and CIT cannot be prevented since some time is always required at each stage, nevertheless the goal is to minimize WIT.
In the experiments of FIG. 39, the WIT was varied while keeping the CIT constant at 3 hours. After this regimen, the fluorescein clearance was tested and the ratio of fluorescein in bile relative to the amount in perfusate was determined at various times.

[5] = cited from earlier work
[6] = severe hepatic IRI (WIT=60 min) vs control and mild IRI groups, 2 mg/kg i.v.

bile-to-plasma (or bile-to-whole blood) fluorescence ratios in the 60-min WIT group ([3]; 2 mg/kg i.v., vs control or 30-min WIT groups) | excretion of fluorescein measured by fluorescence in bile samples ([3]; IRI vs control, intravenous infusion, preliminary in vivo rat experiment (FIG. 4)) | significant clearance of fluorescein from blood into bile ([3]; i.v. bolus 2 mg/kg) | delay of clearance from blood into bile ([3]; i.v. dose of 10 mg/kg) | hepatic clearance of fluorescein ([3]; in hepatic IRI) | fluorescence intensities in bile [3, 6] | fluorescence intensities in whole blood and plasma [3, 6] | area under the curve (AUC) of bile-to-perfusate fluorescence intensity [4] | time course of bile-to-perfusate fluorescence intensity values (excretion of fluorescein) [4] | Structure (SMILES) | time to reach a steady state [1] [min] | ICG retention ratio after 15 min (ICGR15) [2] [%] | plasma disappearance rate (ICGPDR) [2] | induction of Mrp2, Mrp3, and Mrp4 (Mrp2, Mrp3, and Mrp4) | bile-to-plasma fluorescence ratios across warm ischemia time (WIT) groups ([3]; 2 mg/kg i.v., WIT 0, 30, 60 min, 1 h or 4 h reperfusion) | time to equilibrium of fluorescence intensity in hepatocytes and bile ([5]; after dye injection) [min] | time in which metabolism by the liver through membrane transporters and excretion into bile occurs ([5]; healthy liver) [min] | time to clearance from the blood into the bile ([5]; intravenous administration, normal livers) [min]
 |  |  |  |  |  |  |  |  | CC1(C)C(/C=C/C=C/C=C/C=C2\N(CCCCS(=O)(=O)O)c3ccc4ccccc4c3C2(C)C)=[N+](CCCCS(=O)(=O)[O-])c2ccc3ccccc3c21 [ICG, Indocyanine green] | < 30 | < 10 | over 18 %/min |  |  |  |  | 
 |  |  |  |  |  |  |  |  | Cc1c(-c2cnccn2)ssc1=S [oltipraz] |  |  |  | induced |  |  |  | 
distinctly lower | noticeably compromised | observed immediately | over 1 h | suppressed | lower | elevated | inversely correlated with WIT | compromised excretion | O=C1OC2(c3ccc(O)cc3Oc3cc(O)ccc32)c2ccccc21 [sodium fluorescein] | < 10 |  |  |  | inverse correlation with WIT; also recorded: stepwise decrease | ≤ 5 | ≤ 15 | ≤ 5

Source: US20250324965A1, “Indicator Clearance Monitoring in Machine Perfusion of an Organ” (The Medical College of Wisconsin, Inc., priority 2021, published 2025)
